Molecules are shown by their SMILES. Where two headings read alike, the source gives them in different places.

The values below come from patent US6524863B1, “High throughput HPLC method for determining Log P values” (Scynexis Chemistry & Automation, Inc., priority 1999, dated 2003).

Series [1] in a line: physchem.
Procedure: (§1) An evaporated light scattering detector (Richard Scientific) and a platform LC mass spectrometer (Micromass) were used as detectors.
(§2) The mobile phase was a binary gradient of methanol/water. The stationary phase was a 4.6×50 mm column packed with 5 micron ODS-AQ. The injection size was 5 μL. The mobile phase gradient was adjusted to obtain a Log P nearly equal to the retention time on the HPLC column.
(§3) After 6.1 minutes, the column was set to re-equilibrate.
(§4) Retention times (X), shake flask log P (Y), slope and intercept from the above plot were used to calculate log P for these standards.
(§5) When log P was plotted versus the log of the capacity factor K for these standards, an following exponential curve was obtained, as shown in FIG. 3.
(§6) Using this exponential equation and HPLC retention times of these standards, Log P and Log K were calculated and compared with the retention times and literature Log P values.
Series [2] can be described thus: physchem. This is another data set of the same source.
Source text: (§7) Isocratic data, measured at certain eluent compositions (typically as log k′x, for a given eluent composition X), can be used to calculate Log P data.
The conditions of series [3]: cited from earlier work.
Series [4] in a line: Gradient HPLC Log P determination from retention time (new method).
Procedure: as §1, §2, §3, §4, §5, §6
The nature of a further series: Isocratic HPLC Log P. Conditions: for Isocratic Log P: isocratic method, no details given.
Setting [5] is: New Method Calc. Log P Y = 1.009X + 0.029.
[6] abbreviates: shake flask Log P values (lit.), Table 2.
[7] abbreviates: shake flask, literature, Table 3.
Setting [8] is: shake flask, literature, Table 4.
Where [9] appears, read: Log P calc. by slope, calculated from Log K (capacity factor) with exponential equation Y=0.6972e^1.5966X.
[10] abbreviates: New Method Calc. Log P Y = 1.009X + 0.029, calculated from average gradient HPLC retention time X (ODS-AQ 4.6×50 mm, methanol/water), linear fit.

Source text for Isocratic HPLC Log P: as §7

In the case of `Cc1ccc(Cl)cc1` [standard 8, p-chloro toluene], the chromatographic logP in the series “physchem [1]” (Log P calc. by slope) was 3.74; in the series “physchem [1]” (setting [5]), 3.74; in “physchem [2]”, 3.57.
Consider `Brc1ccccc1` [standard 7, bromobenzene], for which the chromatographic logP in the series “physchem [1]” (Log P calc. by slope) is 3.5; in “physchem [1]” (setting [5]), 3.44; in “physchem [2]”, 3.23.
Consider `c1ccc(Sc2ccccc2)cc1` [standard 13, phenyl sulfide], for which the “Lit. Log P” value in series [3] (setting [6]), in series [3] (setting [7]) and in series [3] (setting [8]) was 4.45 each time. Moreover, the values for the chromatographic logP (in series [4] (setting [9]); in series [4] (setting [10]); in “Isocratic HPLC Log P”) were 4.17, 4.33 and 4.31, respectively.
For the molecule `CCOP(=S)(OCC)Oc1ccc([N+](=O)[O-])cc1` [standard 9, diethyl parathion], the “Isocratic Log P” value in “Isocratic HPLC Log P” is listed as 3.39.
Turning to `CCCN(CCC)c1c([N+](=O)[O-])cc(C(F)(F)F)cc1[N+](=O)[O-]` [standard 14, trifluralin], the results for the chromatographic logP in “physchem [1]” (Log P calc. by slope), in the series “physchem [1]” (setting [5]) and in the series “physchem [2]” were 4.57, 4.88 and 5, respectively.
`c1ccc2cc3ccccc3cc2c1` [standard 12, anthracene]: the chromatographic logP in “physchem [1]” (Log P calc. by slope) is 4.27; in the series “physchem [2]”, 4.46.
Regarding `COc1ccc(C(c2ccc(OC)cc2)C(Cl)(Cl)Cl)cc1` [standard 15, methoxychlor], the chromatographic logP in “physchem [1]” (Log P calc. by slope) was 4.37; in “physchem [1]” (setting [5]), 4.61; in the series “physchem [2]” it was 4.26.
Regarding `Cc1ccc2cc(C)ccc2c1` [standard 11, 2,6-dimethyl napthalene], the “Isocratic Log P” value in “Isocratic HPLC Log P” is given as 4.49.
As to `O=c1cc[nH]c(=O)[nH]1` [standard 1, uracil], the chromatographic logP in series [4] (setting [10]) is 0.32; in the series “Isocratic HPLC Log P”, -1.05.
On to `c1ccc(-c2ccccc2)cc1` [standard 10, biphenyl], for which the chromatographic logP in “physchem [1]” (setting [5]) is 4.07; in “physchem [2]” it was 3.8. Moreover, the “Log P calc. by slope” value in series [4] (calculated from Log K (capacity factor) with exponential equation Y=0.6972e^1.5966X) is 3.98.
Turning to `NC(=O)c1ccccc1` [standard 2, benzamide], the values for the chromatographic logP (in series [4] (setting [9]); in series [4] (setting [10]); in “Isocratic HPLC Log P”) were 0.58, 0.56 and 0.41, respectively.
In the case of `CNC(=O)c1ccccc1` [standard 3, N-methyl benzamide], the “Lit. Log P” value in series [3] (setting [6]), in series [3] (setting [7]) and in series [3] (setting [8]) was 0.86 throughout. The chromatographic logP was 0.75 in series [4] (setting [9]), 0.68 in series [4] (setting [10]) and 0.96 in the series “Isocratic HPLC Log P”.
On to `CC(=O)c1ccccc1` [standard 6, acetophenone], for which the “Lit. Log P” value in series [3] (setting [6]), in series [3] (setting [7]) and in series [3] (setting [8]) was 2.13 each time. The chromatographic logP in series [4] (setting [9]) was 2.22; in series [4] (setting [10]), 1.94; in the series “Isocratic HPLC Log P” it was 2.54.
As to `ClC(Cl)=C(c1ccc(Cl)cc1)c1ccc(Cl)cc1` [standard 16, DDE], the “Isocratic Log P” value in “Isocratic HPLC Log P” is 6.28.
As for `OCc1ccccc1` [standard 4, benzyl alcohol], the chromatographic logP in series [4] (setting [10]) is 0.98; in the series “Isocratic HPLC Log P” it was 0.96.

The term chromatographic logP denotes lipophilicity estimated from chromatographic retention.
